This is an account of results in US10428159B2, “Blocking monoclonal antibodies to AGR2 and its receptor C4.4A” (Board of Regents, The University of Texas System, priority 2014, dated 2019).

Experiment [1] deals with AsPC-1 cells. Put plainly: Apoptosis assay (Gem, rAGR2, antibodies). Type of experiment: cell-based. To be noted: AsPC-1, 5 μM Gem. The protocol: FIGS. 11A-D. Monoclonal antibodies developed bind respectively to AGR2 and C4.4A proteins and blocked their functions. From the endogenous lysate (SU86.86/Panc-1), AGR2 (18 kD) and C4.4A (50 kD) were identified by a panel of mAbs. […] Extra bands identified with the endogenous protein were re-confirmed with the recombinant protein. For apoptosis studies, AsPC-1 cells were treated without or with Gem (0.5 μM) and rAGR2 (100 nM) and with purified (A) AGR2 and (B) C4.4A Abs (1 μM). Commercially available Abs served as control. […] Horizontal line represents median apoptotic value. Data shown are mean±SE for 3 experiments (*p<0.05). (C,D) Binding assays were conducted with purified (C) AGR2 and (D) C4.4A Abs as selected from the apoptosis assay as having high blocking efficiency. ELISA assays were conducted by coating antigenic peptide (0.5 μg) and probed with respective purified Abs. Data shown are mean±SE for 3 experiments (*p <0.05). Based on high specificity and binding, clone 28B for AGR2 and 1A for C4.4A were selected. Purified Abs were also run on 4-20% gradient gel to check for the presence of heavy (50 kD) and light chains (25 kD).
Cell growth, migration, invasion and apoptosis assays. Wild-type and siRNA transfected PDAC cells were grown with rAGR2 (0-500 nM) in the presence and absence of antibodies (polyclonal commercial or newly developed mAbs) (1 μM). The medium was refreshed daily. […]

Experiment [2] has as its system BxPC-3 cells. Description: Apoptosis assay (Gem, rAGR2). Type of experiment: cell-based. As to conditions: BxPC-3, Gem 1 μM. The protocol: FIGS. 7A-D. Extracellular rAGR2-mediated functions. (A) Pancreatic cancer cells (BxPC-3 and MiaPaCa-2) were used for these studies. Extracellular addition of rAGR2 caused a significant dose-dependent increase in proliferation (BxPC-3-3-fold increase; MiaPaCa-2-4-fold increase; p<0.05). Pancreatic cancer cells were plated (2×10^4 cells) with and without rAGR2 (0-100 nM) on a Boyden's chamber for migration studies (B) and on an invasion chamber for invasion studies (C). After 22 h, cells were fixed with methanol and stained by hematoxylin, and cells in 10 random fields at 100× magnification were photographed and counted. Extracellular addition of rAGR2 caused a significant dose-dependent increase in migration (BxPC-3-7-fold increase; MiaPaCa-2-3-fold increase) and invasion (BxPC-3-10-fold increase; MiaPaCa-2-3-fold increase). (D) For analysis of apoptosis, BxPC-3 cells were treated with and without Gem (1 μM) and AGR2 (100 nM). […] Data shown are mean±SE for 3 experiments (*p<0.05 vs. control).
Cell growth, migration, invasion and apoptosis assays. Wild-type and siRNA transfected PDAC cells were grown with rAGR2 (0-500 nM) in the presence and absence of antibodies (polyclonal commercial or newly developed mAbs) (1 μM). The medium was refreshed daily. Cell numbers were estimated after 48 h by MTS assay as described previously (Ramachandran et al., 2007). […]

Experiment [3] concerns AsPC-1 cells. Description: Model 1 AsPC-1 aggressive cell model, orthotopic tumors. It counts as in vivo, athymic nude mice. The protocol: In vivo studies. In vivo experiments were conducted with athymic nude mice (B6.Cg-Foxn1^nu/J—female—age 9 weeks) (NCI, Bethesda, Md.) according to the UT MDACC regulatory standards and IUCAC committee approval. Orthotopic tumors were developed with luciferase-labeled cells (0.25×10^6). IgG (Cat #OB010701; Southern Biotech, Birmingham, Ala.) served as a control Ab.
Model 1 (AsPC-1-Aggressive Cell Model)—Two weeks after the injection of the aggressive AsPC-1 cells, when the tumors weighed less than 0.5 g (as surgically confirmed from a parallel untreated group), mice (n=6) were treated with control or mAbs (5 mg each of AGR2/C4.4A mAb in combination/kg/body weight/twice a week/i.p) and with or without Gem (100 mg/kg body weight/once a week/i.p) until all of the control mice had died (seven weeks). Tumor weight and metastasis to liver and lung were compared between control and treated groups ex vivo at the end of the experiment.

Turning to `Nc1ccn([C@@H]2O[C@H](CO)[C@@H](O)C2(F)F)c(=O)n1` [Gem, Gemcitabine, reference compound], the increase in apoptosis is reported as 3 fold in experiment [1] and 1 fold in experiment [2]. In addition, the “effect on tumor growth and metastasis incidence” value in experiment [3] (Gem 100 mg/kg once a week i.p., alone or in combination with the mAbs) was “no significant effect”. Further, the mice remained alive in experiment [3] (after four weeks of treatment (six weeks total), when all control Ab mice had died) is 30%.
